For test [1], the target named is Insulin-regulated aminopeptidase (Homo sapiens). The test can be described thus: Inhibition of human recombinant IRAP expressed in baculovirus infected Sf9 cells using omniMMP fluorogenic substrate incubated for 5 to 10 mins by fluorescence spectrophotometry analysis.
Test [2] has the same target. The test can be described thus: Competitive inhibition of human recombinant IRAP expressed in baculovirus infected sf9 cells using L-AMC as substrate incubated for 5 to 10 mins by Michaelis-Menten analysis.

What is called IC50 is the point on the concentration scale where inhibition reaches its midpoint. One may read the Ki as the equilibrium dissociation constant of an inhibitor or competing ligand from its target. As to `O=C(Cn1cccc(O)c1=O)NCCc1ccc(-c2ccccc2)cc1`, the concentration for half-maximal inhibition (IC50) in test [1] worked out at 24.8 µM. Besides, the Ki in test [2] amounted to 13 µM. With `CC(C)[C@H](NC(=O)Cn1cccc(O)c1=O)C(=O)OCc1ccccc1`, the IC50 in test [1] is 33.6 µM. Also, the Ki in test [2] is 17.6 µM.

In the case of `CCCC[C@H](N)C(=O)Nc1cc(C(=O)N[C@@H](Cc2c[nH]c3ccccc23)C(=O)OCc2ccccc2)ccn1`, the IC50 in test [1] was determined as 8.8 µM. For the same molecule, the inhibitory constant (Ki) in test [2] was 4.6 µM.

Take `COc1cccn(CC(=O)NCCc2ccc(-c3ccccc3)cc2)c1=S`: the IC50 in test [1] amounted to 16.7 µM. Further, the inhibition constant Ki in test [2] turned out to be 8.7 µM. On the same counts, the results for `O=C(Cn1cccc(O)c1=O)N[C@@H](Cc1c[nH]c2ccccc12)C(=O)OCc1ccccc1` are 10.9 µM and 5.7 µM. As for `CCCC[C@H](N)C(=O)Nc1ccc(C(=O)N[C@@H](Cc2c[nH]c3ccccc23)C(=O)OCc2ccccc2)cc1`, the IC50 in test [1] is more than 10 µM. Turning to `CCCC[C@H](N)C(=O)NNc1ccc(C(=O)N[C@@H](Cc2c[nH]c3ccccc23)C(=O)OCc2ccccc2)cc1`, in test [1], the IC50 is 2.5 µM. The inhibition constant Ki in test [2] was 1.3 µM. For `CCCC[C@H](N)C(=O)NNc1cccc(C(=O)N[C@@H](Cc2c[nH]c3ccccc23)C(=O)OCc2ccccc2)c1`, the 50% inhibitory concentration (IC50) in test [1] was determined as 7.2 µM. Further, the Ki in test [2] came out at 3.8 µM. As to `CCCC[C@H](N)C(=O)Nc1cccc(C(=O)N[C@@H](Cc2c[nH]c3ccccc23)C(=O)OCc2ccccc2)c1`, the IC50 in test [1] was 6.2 µM. The Ki in test [2] amounted to 3.2 µM.

`N[C@@H](CCc1ccccc1)C(=O)NNc1ccc(C(=O)N[C@@H](Cc2c[nH]c3ccccc23)C(=O)OCc2ccccc2)cc1`: the IC50 in test [1] is 2.5 µM.

These data come from BindingDB's records for doi:10.1016/j.bmc.2019.115177 (National Centre For Scientific Research "Demokritos, 2019).
